Consider six molecules from DBAASP.

Converted amounts (≈) assume the structure as drawn. “And” between values parts separate entries of the source, which are not always exact repeats. Equal values may be shown once. Some results are limits rather than exact numbers.

Some test systems named below: Escherichia coli BL2; Candida tropicalis; Enterobacter sp.; Priestia flexa; Staphylococcus aureus; Bacillus licheniformis; Escherichia coli; Serratia marcescens; Bacillus anthracis; Bacillus subtilis; Staphylococcus xylosus; Escherichia coli JM109; Pseudomonas aeruginosa; Citrobacter koseri; Escherichia coli BL21; Salmonella enterica; Klebsiella pneumoniae M6.
What all share (experiment): ≥ marks a high value that may be exact or a test limit, other limits are often not marked, values filed in µg/mL are converted to µM
Test [1] relates to Acinetobacter baumannii ATCC 15308.
The subject of test [2] is Enterococcus faecium ATCC 19434.
Test [3] deals with Pseudomonas sp. ATCC 15915.
The subject of test [4] is Micrococcus luteus ATCC 7468.
In test [5] the test system is Staphylococcus aureus ATCC 502A.
Test [6] has as its system Lactiplantibacillus plantarum ATCC 8014.
The subject of test [7] is Salmonella enterica subsp. enterica serovar Enteritidis ATCC 13076.
Test [8] concerns Bacillus subtilis ATCC 6633.
The subject of test [9] is Staphylococcus aureus ATCC 25923.
Test [10] has as its system Klebsiella pneumoniae ATCC 700603.
In test [11] the test system is Escherichia coli ATCC 25922.
The subject of test [12] is Bacillus cereus ATCC 14579.
Test [13] deals with Lactococcus lactis ATCC 11454.
Test [14] has as its system Klebsiella pneumoniae CCRC 10694.
Test [15] deals with Staphylococcus aureus CCRC 15211.
In test [16] the test system is Vibrio parahaemolyticus CCRC 10806.
Test [17] relates to Streptococcus alactolyticus.
For test [18], the system named is Salmonella typhimurium CCRC 12947.
Test [19] has as its system Staphylococcus aureus CCRC 12652.
Test [20] relates to Candida albicans NCPF 3179.
The test system of test [21] is Staphylococcus aureus NCTC 13616.
Test [22] relates to Staphylococcus aureus NCTC 13277.
The test system of test [23] is Acinetobacter baumannii ATCC 17978.
The test system of test [24] is Pseudomonas aeruginosa NCTC 13437.
Test [25] has as its system Enterococcus faecalis NCTC 12201.
Test [26] has as its system Acinetobacter baumannii AYE.
For test [27], the system named is Klebsiella pneumoniae NCTC 13368.
Test [28] has as its system Pseudomonas aeruginosa PAO1.
Test [29] concerns Staphylococcus aureus NCTC 6571.
In test [30] the test system is Enterococcus faecalis NCTC 775.
For test [31], the system named is Staphylococcus epidermidis.
In test [32] the test system is Staphylococcus aureus A170.

As a reminder, the MIC is the least concentration at which growth counts as inhibited. The low end stands for greater potency, the high end for weaker potency. `CC[C@H](C)[C@H](NC(=O)[C@H](C)NC(=O)[C@H](Cc1ccccc1)NC(=O)[C@H](Cc1c[nH]c2ccccc12)NC(=O)[C@H](CCC(N)=O)NC(=O)[C@H](C)NC(=O)[C@H](CCCN=C(N)N)NC(=O)[C@@H](NC(=O)[C@H](Cc1ccccc1)NC(=O)[C@H](CCC(N)=O)NC(=O)[C@@H]1CCCN1C(=O)[C@@H]1CCCN1C(=O)[C@@H](N)CCCN=C(N)N)[C@@H](C)O)C(=O)N[C@@H](CCC(N)=O)C(=O)N[C@@H](Cc1cnc[nH]1)C(=O)N[C@H](C(=O)N[C@@H](CO)C(=O)N[C@@H](CC(C)C)C(=O)N[C@@H](CC(N)=O)C(=O)O)[C@@H](C)CC` [RPPQFTRAQWFAIQHISLN]: the MIC (in [1]; in [2]; in [3]; in test [4]; in test [5]; in the test on Escherichia coli BL2) was 10 µM (≈ 23.1 µg/mL) each time.

Molecule `CSCC[C@H](NC(=O)[C@@H](N)CC(C)C)C(=O)N[C@H]1CSSC[C@@H](C(=O)N[C@@H](CO)C(=O)N[C@@H](CC(N)=O)C(=O)O)NC(=O)[C@H](CC(=O)O)NC(=O)[C@H](CC(C)C)NC(=O)[C@@H]2CCCN2C(=O)[C@H](Cc2cnc[nH]2)NC(=O)[C@H]([C@@H](C)O)NC1=O` [LMCTHPLDCSN] returned an MIC against Candida tropicalis of 25.9 µM (≈ 31.9 µg/mL).

As for `CC(C)C[C@H](NC(=O)[C@@H](NC(=O)[C@H](CO)NC(=O)[C@H](CC(C)C)NC(=O)[C@@H]1CCCN1C(=O)[C@H](CC(C)C)NC(=O)[C@H](CO)NC(=O)[C@H](CCCCN)NC(=O)[C@H](CO)NC(=O)[C@@H](N)Cc1ccc(O)cc1)C(C)C)C(=O)N[C@@H](CC(N)=O)C(=O)N1CCC[C@H]1C(=O)O` [YSKSLPLSVLNP], the MIC was 12.1 µM (≈ 16 µg/mL) in the test with Enterobacter sp.; 24.3 µM (≈ 32 µg/mL) with Priestia flexa; 48.6 µM (≈ 64 µg/mL) in the test on Staphylococcus aureus; 24.3 µM (≈ 32 µg/mL) in [6]; not below 97.2 µM against Bacillus licheniformis; 6.07 µM (≈ 8 µg/mL) with Escherichia coli. Further, the MIC in test [7] was 3.04 µM (≈ 4 µg/mL); against Serratia marcescens, 24.3 µM (≈ 32 µg/mL); against Bacillus anthracis, not below 97.2 µM; in [8], 12.1 µM (≈ 16 µg/mL); in test [9] it was 24.3 µM (≈ 32 µg/mL); against Bacillus subtilis it was 24.3 µM (≈ 32 µg/mL). Moreover, the MIC in test [10] is 12.1 µM (≈ 16 µg/mL); in test [11], 6.07 µM (≈ 8 µg/mL); in [12] it was not below 48.6 µM; in test [13] it was not below 97.2 µM.

As to `CC[C@H](C)[C@H](N)C(=O)N[C@@H](CC(N)=O)C(=O)N[C@@H](CC(C)C)C(=O)N[C@@H](CCCCN)C(=O)N[C@@H](C)C(=O)N[C@H](C(=O)N[C@@H](C)C(=O)N[C@@H](C)C(=O)N[C@@H](Cc1ccccc1)C(=O)N[C@@H](C)C(=O)N[C@@H](CCCCN)C(=O)N[C@@H](CCCCN)C(=O)N[C@@H](CC(C)C)C(=O)N[C@@H](CC(C)C)C(N)=O)[C@@H](C)CC` [INLKAIAAFAKKLL], the MIC came out at 21.1 µM (≈ 32 µg/mL) in test [14]; 1.32 µM (≈ 2 µg/mL) against Staphylococcus xylosus; 5.28 µM (≈ 7.99 µg/mL) in the test on Escherichia coli JM109; 21.1 µM (≈ 32 µg/mL) in [15]; 84.5 µM (≈ 128 µg/mL) in the test with Pseudomonas aeruginosa; 2.64 µM (≈ 4 µg/mL) in the test with Citrobacter koseri. The MIC came out at 21.1 µM (≈ 32 µg/mL) in test [16]; 10.6 µM (≈ 16 µg/mL) in test [17]; 5.28 µM (≈ 7.99 µg/mL) with Escherichia coli BL21; 21.1 µM (≈ 32 µg/mL) in test [18]; 10.6 µM (≈ 16 µg/mL) in the test with Salmonella enterica; 15.9 µM (≈ 24 µg/mL) in [19].

As for `CC[C@H](C)[C@H](NC(=O)[C@@H]1CCCN1C(=O)[C@H](CC(C)C)NC(=O)[C@H](CC(C)C)NC(=O)[C@H](CCCCN)NC(=O)[C@@H](N)CCCCN)C(=O)N[C@H](C(=O)N[C@@H](C)C(=O)N[C@@H](CC(N)=O)C(=O)N[C@@H](CC(C)C)C(=O)N[C@@H](CC(C)C)C(=O)N[C@@H](CCCCN)C(=O)N[C@@H](CO)C(=O)N[C@@H](CC(C)C)C(=O)N[C@@H](CC(C)C)C(N)=O)C(C)C` [KKLLPIVANLLKSLL], the MIC in test [20] was not below 77 µM; in test [21], not below 77 µM; in [22] it was not below 77 µM; in [23], 19.2 µM and ≥ 38.5 µM; in test [24], not below 77 µM; in [25], not below 77 µM. In addition, the MIC in [26] was 19.2 µM and ≥ 38.5 µM; in test [27], not below 77 µM; in test [28], more than 77 µM; in test [29], not below 77 µM; in test [30], not below 77 µM; with Klebsiella pneumoniae M6, not below 77 µM.

For `CC[C@H](C)[C@H](NC(=O)[C@@H]1CCCN1C(=O)[C@H](CC(C)C)NC(=O)[C@@H](N)CC(C)C)C(=O)N[C@H](C(=O)N[C@@H](C)C(=O)N[C@@H](CC(N)=O)C(=O)N[C@@H](CC(C)C)C(=O)N[C@@H](CC(C)C)C(=O)N[C@@H](CCCCN)C(=O)N[C@@H](CO)C(=O)N[C@@H](CC(C)C)C(=O)N[C@@H](CC(C)C)C(=O)O)C(C)C` [LLPIVANLLKSLL], the MIC is 7.11 µM (≈ 10 µg/mL) in test [31] and 3.55 µM (≈ 5 µg/mL) in [32].
